Assays:
Format in all cases: cell-based
[1] = target: T1, human PPARγ (182–505aa) ligand binding domain (Homo sapiens, UniProt P37231); assay: PPAR transfection (Gal4-LBD luciferase reporter) assay, hPPARγ; settings: transfected COS-7 cells, 16 hours, luciferase activity; read-out: hPPAR; EC50 γ (agonist activity)
T1 construct: γ(182–505aa); expressed in transfected cells; host or cells: COS-7
T1 sequence (P37231 182-505): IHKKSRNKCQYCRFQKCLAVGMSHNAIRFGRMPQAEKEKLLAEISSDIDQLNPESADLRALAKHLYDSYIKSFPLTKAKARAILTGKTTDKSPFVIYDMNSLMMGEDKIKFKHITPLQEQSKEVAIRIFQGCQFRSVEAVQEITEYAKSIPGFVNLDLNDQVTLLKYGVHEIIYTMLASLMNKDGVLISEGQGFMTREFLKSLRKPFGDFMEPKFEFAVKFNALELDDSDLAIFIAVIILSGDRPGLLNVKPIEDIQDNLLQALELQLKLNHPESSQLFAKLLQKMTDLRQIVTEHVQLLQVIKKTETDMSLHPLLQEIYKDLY
Protocol: (§1) COS-7 cells, which is African green monkey kidney cell line, were used for all transfection assays. Cells were cultured in DMEM medium supplemented with 10% fetal bovine serum, glutamic acid, and an antibiotic under humidified 5% CO2 atmosphere.
(§2) Cells were transfected by lipofectamine reagent with a mixture containing expression plasmid, firefly luciferase reporter plasmid. And a β-galactosidase expression plasmid used as an internal control for transfection efficiency.
(§3) Transiently transfected cells were incubated with DMEM with 0.2% FCS with or without compound. And after 16 hours, luciferase activity and β-galactosidase activity of cell lysate were measured.
(§4) Each compound was dissolved in and diluted with dimethyl sulfoxide (DMSO), and the DMSO concentration of the DMEM medium (containing 0.2% serum) was adjusted to 0.1% upon treatment of cells.

[2] = target: T2, human PPARδ (137–441aa) ligand binding domain (Homo sapiens, UniProt Q03181); assay: PPAR transfection (Gal4-LBD luciferase reporter) assay, hPPARδ; settings: transfected COS-7 cells, 16 hours, luciferase activity; read-out: hPPAR; EC50 δ (agonist activity)
T2 construct: δ (137–441aa); expressed in transfected cells; host or cells: COS-7
T2 sequence (Q03181 137-441): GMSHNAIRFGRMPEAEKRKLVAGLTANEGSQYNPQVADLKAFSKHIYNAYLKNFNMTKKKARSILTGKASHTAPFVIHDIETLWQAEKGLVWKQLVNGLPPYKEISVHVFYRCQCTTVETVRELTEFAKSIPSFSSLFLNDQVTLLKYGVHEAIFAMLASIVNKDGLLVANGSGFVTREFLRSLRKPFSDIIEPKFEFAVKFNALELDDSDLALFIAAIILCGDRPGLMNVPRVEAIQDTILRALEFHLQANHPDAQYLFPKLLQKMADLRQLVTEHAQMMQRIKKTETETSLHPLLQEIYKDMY
Protocol: as §1, §2, §3, §4

[3] = target: T3, human PPARα (166–467aa) ligand binding domain (Homo sapiens, UniProt Q07869); assay: PPAR transfection (Gal4-LBD luciferase reporter) assay, hPPARα; settings: transfected COS-7 cells, 16 hours, luciferase activity; read-out: hPPAR; EC50 α (agonist activity)
T3 construct: human PPARα (166–467aa); expressed in transfected cells; host or cells: COS-7
T3 sequence (Q07869 166-467): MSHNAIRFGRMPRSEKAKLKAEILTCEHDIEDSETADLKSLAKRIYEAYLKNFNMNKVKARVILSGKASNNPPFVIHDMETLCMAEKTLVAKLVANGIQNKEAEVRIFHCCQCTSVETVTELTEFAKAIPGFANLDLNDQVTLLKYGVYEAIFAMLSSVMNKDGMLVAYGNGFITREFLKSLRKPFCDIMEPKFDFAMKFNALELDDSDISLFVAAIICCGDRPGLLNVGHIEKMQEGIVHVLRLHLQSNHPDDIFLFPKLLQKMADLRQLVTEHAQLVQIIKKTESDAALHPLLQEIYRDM
Protocol: as §1, §2, §3, §4

SMILES	EC50 [1] [nM]	EC50 [2] [nM]	EC50 [3] [nM]
CCC(Oc1cccc(CN(CCOc2ccc(F)cc2)c2nc3ccc(F)cc3o2)c1)C(=O)O (stereo not drawn) [Example 183]	400	2400	4
CCC(Oc1cccc(CN(CCOc2ccccc2)c2nc3cc(F)ccc3o2)c1)C(=O)O (stereo not drawn) [Example 229]	> 10000	1800	6
CCC(Oc1cccc(CN(CCOc2ccc(OS(C)(=O)=O)cc2)c2nc3ccccc3o2)c1)C(=O)O (stereo not drawn) [Example 231]	> 10000	> 100000	13

Continued, values first:

EC50 [1] [nM]	EC50 [2] [nM]	EC50 [3] [nM]	SMILES
> 10000	2000	4	CC(Oc1cccc(CN(CCCOc2ccc(F)cc2)c2nc3cc4c(cc3o2)OCO4)c1)C(=O)O (stereo not drawn) [Example 169]
5500	10000	20	CC(Oc1cccc(CN(CCOc2ccc(F)cc2)c2nc3ccccc3o2)c1)C(=O)O (stereo not drawn) [Example 186]
1600	1800	10	COc1ccc(OCCCN(Cc2cccc(OC(C)C(=O)O)c2)c2nc3cc(Cl)ccc3o2)cc1 (stereo not drawn) [Example 204]
1400	1700	10	COc1ccc2oc(N(CCCOc3ccc(Cl)cc3)Cc3cccc(OC(C)C(=O)O)c3)nc2c1 (stereo not drawn) [Example 206]

Reference: US7183295B2, “PPAR-activating compound and pharmaceutical composition comprising the compound” (Kowa Co., Ltd., priority 2003, dated 2007)
